Nine molecules from patent US20240182453A1, “NOVEL SUBSTITUTED PYRAZINE-CARBOXAMIDE DERIVATIVES” (Boehringer Ingelheim International GmbH, priority 2022, published 2024) can be followed below.

The target of the test is human metabotropic Glutamate 4 receptor (mGluR4) (Homo sapiens (Human), UniProt Q14833). Briefly: Assay A: in vitro testing of mGluR4 potency (glutamate-induced cAMP lowering, HTRF cAMP). The following applies: HEK293 cells overexpressing human mGluR4; 10 uM L-glutamic acid, 1 uM forskolin; compounds of the present invention. In kind it is cell-based. Summed up:
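HEK293 cells overexpressing human mGluR4 treated 30 min at room temperature with compound plus 10 uM L-glutamate, 1 uM forskolin, 0.5 mM IBMX, 0.1% BSA, 1% DMSO. cAMP read by HTRF (665/615 nm ratio), normalized to glutamate (100%) and no-glutamate (0%) controls as percent of control.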

Sequence of human metabotropic Glutamate 4 receptor (mGluR4) (Q14833 33-912): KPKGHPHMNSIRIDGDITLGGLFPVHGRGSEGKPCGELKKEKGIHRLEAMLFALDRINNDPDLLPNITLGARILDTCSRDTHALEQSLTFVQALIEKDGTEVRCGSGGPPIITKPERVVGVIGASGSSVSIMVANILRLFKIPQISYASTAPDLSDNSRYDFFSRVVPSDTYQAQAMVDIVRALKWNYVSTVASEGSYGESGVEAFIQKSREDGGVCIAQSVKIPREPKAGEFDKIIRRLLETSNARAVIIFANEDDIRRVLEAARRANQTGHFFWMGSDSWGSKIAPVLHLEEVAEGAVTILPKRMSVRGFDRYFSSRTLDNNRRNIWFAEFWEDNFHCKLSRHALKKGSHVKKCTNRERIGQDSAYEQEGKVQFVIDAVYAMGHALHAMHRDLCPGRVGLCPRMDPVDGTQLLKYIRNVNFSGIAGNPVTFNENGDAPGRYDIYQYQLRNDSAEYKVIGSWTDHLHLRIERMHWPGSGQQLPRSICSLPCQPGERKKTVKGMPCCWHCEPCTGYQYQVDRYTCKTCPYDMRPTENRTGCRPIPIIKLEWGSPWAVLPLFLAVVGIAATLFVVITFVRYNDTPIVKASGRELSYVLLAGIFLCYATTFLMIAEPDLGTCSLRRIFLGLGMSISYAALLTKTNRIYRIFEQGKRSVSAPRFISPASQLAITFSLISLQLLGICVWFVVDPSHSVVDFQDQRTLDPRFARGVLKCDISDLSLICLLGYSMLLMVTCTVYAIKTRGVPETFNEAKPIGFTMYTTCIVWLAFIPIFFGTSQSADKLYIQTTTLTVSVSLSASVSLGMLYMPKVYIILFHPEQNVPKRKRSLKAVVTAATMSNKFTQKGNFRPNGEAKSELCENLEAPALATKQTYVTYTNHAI

Molecule `Cc1cnc(C(=O)N[C@H](c2nc3cc(F)ccc3n2CC(F)F)[C@]2(O)CCCOC2)cn1` [Example 151, N-[(R)-[1-(2,2-difluoroethyl)-5-fluoro-1H-1,3-benzodiazol-2-yl][(3R)-3-hydroxyoxan-3-yl]methyl]-5-methylpyrazine-2-carboxamide] displayed an IC50 of 58 nM. With `CCn1c([C@@H](NC(=O)c2cnc(C)cn2)[C@]2(O)CCCOC2)nc2ccc(C(F)(F)F)cc21` [Example 152, N-[(R)-[1-ethyl-6-(trifluoromethyl)-1H-1,3-benzodiazol-2-yl][(3R)-3-hydroxyoxan-3-yl]methyl]-5-methylpyrazine-2-carboxamide] the figure was 14 nM; with `CCn1c([C@@H](NC(=O)c2cnc(C)cn2)[C@]2(O)CCCOC2)nc2ccc(F)cc21` [Example 153, N-[(R)-(1-ethyl-6-fluoro-1H-1,3-benzodiazol-2-yl)[(3R)-3-hydroxyoxan-3-yl]methyl]-5-methylpyrazine-2-carboxamide], 30 nM; with `CCn1c([C@@H](NC(=O)c2cnc(C)cn2)[C@]2(O)CCOC2)nc2cc(Cl)ccc21` [Example 154, N-[(R)-(5-chloro-1-ethyl-1H-1,3-benzodiazol-2-yl)[(3R)-3-hydroxyoxolan-3-yl]methyl]-5-methylpyrazine-2-carboxamide], 84 nM. To `CCn1c([C@@H](NC(=O)c2cnc(C)cn2)[C@]2(O)CCOC2)nc2ccc(C(F)(F)F)cc21` [Example 155, N-[(R)-[1-ethyl-6-(trifluoromethyl)-1H-1,3-benzodiazol-2-yl][(3R)-3-hydroxyoxolan-3-yl]methyl]-5-methylpyrazine-2-carboxamide] belongs 63 nM; to `CCn1c([C@@H](NC(=O)c2cnc(C)cn2)[C@]2(O)CCOC2)nc2cc(C(F)(F)F)ccc21` [Example 156, N-[(R)-[1-ethyl-5-(trifluoromethyl)-1H-1,3-benzodiazol-2-yl][(3R)-3-hydroxyoxolan-3-yl]methyl]-5-methylpyrazine-2-carboxamide], 39 nM; to `Cc1cnc(C(=O)N[C@H](c2nc3ccc(Cl)cc3n2CC(F)F)C2CC2)cn1` [Example 157, N-[(S)-[6-chloro-1-(2,2-difluoroethyl)-1H-1,3-benzodiazol-2-yl](cyclopropyl)methyl]-5-methylpyrazine-2-carboxamid], 6 nM.

`Cc1cnc(C(=O)N[C@H](c2nc3cc(Cl)ccc3n2CC(F)F)C2CC2)cn1` [Example 158, N-[(S)-[5-chloro-1-(2,2-difluoroethyl)-1H-1,3-benzodiazol-2-yl](cyclopropyl)methyl]-5-methylpyrazine-2-carboxamide]: the IC50 was 3 nM. Turning to `CCn1c([C@@H](NC(=O)c2cnc(C)cn2)[C@@]2(O)CCOC2)nc2cc(C(F)(F)F)ccc21` [Example 167, N-[(R)-[1-ethyl-5-(trifluoromethyl)-1H-1,3-benzodiazol-2-yl][(3S)-3-hydroxyoxolan-3-yl]methyl]-5-methylpyrazine-2-carboxamide], 55 nM corresponded to half-maximal inhibition (IC50).
